Marks after values point to notes of the source that are not given here.
Legend:
PME-1 = molecular target: T1, PME-1 (Homo sapiens, UniProt Q9Y570); test: PP2A demethylation by PME-1, radioactive filter binding assay; type: biochemical
T1 construct: made in house
T1 sequence (Q9Y570 1-386): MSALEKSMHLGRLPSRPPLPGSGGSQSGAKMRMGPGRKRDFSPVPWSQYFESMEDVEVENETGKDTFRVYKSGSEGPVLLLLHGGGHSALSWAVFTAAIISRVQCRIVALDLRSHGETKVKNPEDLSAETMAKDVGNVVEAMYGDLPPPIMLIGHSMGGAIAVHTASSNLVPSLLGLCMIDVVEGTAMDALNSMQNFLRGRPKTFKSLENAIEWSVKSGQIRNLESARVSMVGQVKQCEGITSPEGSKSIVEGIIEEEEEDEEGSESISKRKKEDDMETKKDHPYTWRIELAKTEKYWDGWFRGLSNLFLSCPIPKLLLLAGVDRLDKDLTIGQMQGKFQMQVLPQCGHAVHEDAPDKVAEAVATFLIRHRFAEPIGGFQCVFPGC
Method: Compositions were created using the extraction methods as generally described in Example 1. These compositions were assayed for their ability to preserve the methylation status of PP2A AC dimer in the presence of protein phosphatase methylesterase-1 (PME-1), using a radioactive filter binding assay.
PP2A-AC dimer was prepared as previously described in Tolstykh T, Lee J, Vafai S, Stock J B. Carboxyl methylation regulates phosphoprotein phosphatase 2A by controlling the association of regulatory B subunits. EMBO J. 2000; 19(20:5682-5691. Additional purification was performed with a HiPrep™ 16/60 Sephacryl® S100 HR in a buffer composed of 50 mM MOPS pH 7.2, 1.0 mM EDTA, 1.0 mM dithiothreitol (DTT), and 0.50 μg/ml each of aprotinin, leupeptin and pepstatin. Leucine carboxyl methytransferase-1 (LCMT-1) and Protein phosphatase methylesterase-1 (PME-1) were prepared using the methods as previously described Xing Y, Li Z, Chen Y, Stock J B, Jeffrey P D, Shi Y. Structural mechanism of demethylation and inactivation of protein phosphatase 2A. Cell. 2008; 133(I):154-163.
[3H]-labeled methylated PP2A AC dirtier was prepared by incubating PP2A, LCMT1 and [3H]-SAM (PerkinElmer; Waltham, Mass.) in 50 mM MOPS-Na (pH 7.2), 5 mM MgCl2, and 1 mM DTT at room temperature for 1 hour. Demethylation of PP2A by PME-1 was measured using the radioactive filter binding assay format. 20 nM PME-1 was incubated for 15 minutes with extract or compound, then 20 nM of [3H]-labeled methylated PP2A AC dimer was added. Reactions were run at room temperature for 30 minutes and then applied to a 96-well filter plate (Millipore Co.) containing 30% TCA where proteins were precipitated and separated from the excess of [3H]-SAM by washing with 70% ethanol. [3H]-incorporation was measured using TopCount NXT scintillation counter (PerkinEimer; Waltham, MA). IC50 values were generated from dose-response curves using a four-parameter logistic curve fit using SigmaPlot software (Systat Software, San Jose, CA).

[1] = system: human pre-adipocyte cells; test: Lipolysis assay, glycerol release; type: cell-based; conditions: 100 μM, 8 hours
Description: Lipolysis is the process in which triglycerides (TG) are hydrolyzed into glycerol and free fatty acids. This process releases free fatty acids (FFA) into the bloodstream where they may be either re-esterified by the adipocyte or travel to other tissues and exert other effects throughout the body. The purpose of this study was to evaluate the lipolysis via measure of the glycerol molecule released in lipolysis process. Here, we evaluated the potential capacity of the chia seed extract composition of Example 1 in cultured human pre-adipocyte cells. Cells were seeded in medium and incubated for 7 days. Neat solutions of the enriched free acid chia seed extract composition of Example 1 were prepared formulated in methanol. Cells were pre-treated for 8 hours with or without test material in media.
A Lipolysis Assay Kit (Cat. No. Lip-1) was obtained from Zen-Bio, Inc. (Research Triangle, NC) and used to determine glycerol levels (μM) based on the methodology described below. Glycerol released to the medium is phosphorylated by […] (ATP) forming glycerol-1-phosphate (G-1-P) and adenosine-5′-diphosphate (ADP) in the reaction catalyzed by glycerol kinase. G-1-P is then oxidized by glycerol phosphate oxidase to dihydroxyacetone phosphate (DAP) and hydrogen peroxide. […] The increase in absorbance at 540 nm is directly proportional to glycerol concentration of the sample. […]

[2] = system: Staphylococcus aureus (ATCC® 29213™); test: Minimum inhibitory concentration, growth of S. aureus; type: cell-based; conditions: for MIC Staphylococcus aureus (ATCC ® 29213 ™): 90% inhibition of growth, aerobic, 24 hours, Table 6; for MIC Staphylococcus aureus (ATCC ® 29213): Table 14
Method: (§1) The inhibition of growth of Cutibacterium acnes and Staphylococcus aureus bacteria was measured according to the methods described in Nakatsuji et al., J Invest Dermatol, 2009, 129: 2480-2488; Traub and Leonhard, Chemotherapy, 1994; 40(6):374-383. In summary, the strain ATCC® 6919™ of C. acnes (American Type Culture Collection, Manassas, VA) was cultured on Reinforced Clostridium agar (BD 218081), under anaerobic conditions using Gas-Pak (B D, Sparks, MD) at 37° C. ATCC® 29213™ strain of S. aureus was cultured on tryptic soy agar (BD 211825), under aerobic conditions at 37° C. A single colony was inoculated in broth medium and cultured at 37° C. In addition to various positive controls, both the Final Product and the First Stage Product of the extraction process described in Example 1 were tested as described below. Test material was dissolved in 100% (v/v) DMSO. Doxycycline was dissolved in 100% (v/v) water. Samples of each test material and a solution of doxycycline were then each incubated with an inoculum of bacteria at a concentration of 1×10^6 CFU per mL, in broth medium in a 96-well microplate (0.1 mL per well) under aerobic conditions for 24 hours (S. aureus) or anaerobic conditions for 72 hours (C. acnes). Samples of each material were tested at final concentrations per well up to 4 mg/mL. A control well received only 5% (v/v) of DMSO or water. After 24-72 hours incubation, the bacteria cultures in the 96-well microplate were mixed well and then absorbance readings at 600 nm were taken to determine bacterial growth.

[3] = system: Cutibacterium acnes (ATCC® 6919™); test: Minimum inhibitory concentration, growth of C. acnes; type: cell-based; conditions: for MIC Cutibacterium acnes (ATCC ® 6919 ™): 90% inhibition of growth, anaerobic, 72 hours, Table 6; for MIC Cutibacterium acnes (ATCC ® 6919): Table 14
Method: as §1

[4] = Clinical trial, skin moisturization by Corneometer; type: in vivo, human; conditions: lower leg
Method: A single-blind, single-center clinical trial was conducted with 6 healthy volunteers of either sex to evaluate the moisturization efficacy of a moisturizing cream (formulated as shown below in Table 8) containing the composition prepared using the process of Example 9, vehicle (i.e., the formulation of Table 8 minus the active ingredient-i.e., the chia seed composition), a negative control (untreated), and two positive controls (petroleum jelly and glycerin). The objective of this study was to evaluate the moisturization efficacy (as measured by Corneometer®) and to evaluate the relative degree of improvement to skin barrier functionality of two test articles as measured by Trans Epidermal Water Loss (TEWL) assessments when tested in 16 healthy subjects. See, e.g., Johan du […] et al., International Guidelines for The In Vivo Assessment Of Skin Properties In Noel-Clinical Settings: Part 2. Transepidermal Water Loss and Skin Hydration, Skin Res. Technol. 19(3), 265-278 (2013); C. W. Blichmann and J. Serup, Assessment of Skin Moisture. Measurement of Electrical Conductance: Capacitance and Transepidermal Water Loss, Acta Derm. Venereol. 68(4): 284-290 (1988). On day -3 of the study, subjects were given a bland soap product (e.g., Simple® Soap) to use on their lower legs for the three days prior to the active phase. They were instructed not to use any other treatment products on their lower legs for the next 3 days (the “Washout Phase”). These products included moisturizing foam baths, shower gels or soaps, lotions and creams, and depilatory products. As part of the pre-treatment assessment, subjects sat resting for a period of at least 30 minutes in a controlled environment at a temperature of 22° C.±2° C. and at a relative humidity of 45%±5%. Following the rest period, their lower legs were marked with a total of four 5 cm×5 cm squares. Moisturization measurements to study the humectant properties of the test articles were performed using the Corneometer® CM825 (Courage and Khazaka, Germany). This instrument relies on the dielectric constant, a physical property of water, which is relatively high and as such will affect the capacitance of a capacitor. Any change in the dielectric constant due to skin moisture variations would alter the capacitance of the precision capacitor in the instrument. These variations were detected electronically and converted into a value by the Corneometer®. A 15-minute warm-up period was allowed before using the Corneometer®. Following assessments of skin hydration by a Corneometer®, a single application of the test articles (i.e., the chia seed formulation and vehicle alone) was made to the lower leg. Further Corneometer® assessments were then performed at 2, 8, and 24-hours following test article application. […]

MIC Staphylococcus aureus (ATCC ® 29213 ™) [2]	MIC Staphylococcus aureus (ATCC ® 29213) [2]	MIC Cutibacterium acnes (ATCC ® 6919 ™) [3]	MIC Cutibacterium acnes (ATCC ® 6919) [3]	SMILES	other results
				CCCCC/C=C\C/C=C\CCCCCCCC(=O)O [LA, cis,cis-9,12-octadecadienoic acid]	[LA] at which 50% PP2A inhibition is achieved (PME-1; regardless of [ALA]): ≥ 1 µg/mL
				CC(C)Cn1c(=O)n(C)c(=O)c2[nH]cnc21 [IBMX, 3-isobutyl-1-methylxanthine]	Glycerol Levels, Avg [1]: 8.8* (p < 0.01 μM; Glycerol Levels, Fold Improvement [1]: 6.4
500 μg\mL	500 μg\mL	500 μg\mL	500 μg\mL	O=C(OOC(=O)c1ccccc1)c1ccccc1 [Benzoyl peroxide]	
2000 μg\mL	2000 μg\mL	1000 μg\mL	500 μg\mL	O=C(O)c1ccccc1O [Salicylic Acid]	
				OCC(O)CO [Positive Control (glycerine), glycerine]	Mean Corneometer ® Values ([4]; 0 hours (before application)): 22.7; Mean Corneometer ® Values ([4]; 2 hours after single application): 127.1; Mean Corneometer ® Values ([4]; 8 hours after single application): 106.8; Mean Corneometer ® Values ([4]; 24 hours after single application): 82.3
0.2 μg\mL	0.2 μg\mL	0.6 μg\mL	0.6 μg\mL	C[C@H]1c2cccc(O)c2C(=O)C2=C(O)[C@]3(O)C(=O)C(C(N)=O)=C(O)[C@@H](N(C)C)[C@@H]3[C@@H](O)[C@@H]21 [Doxycycline]	
				CC/C=C\C/C=C\C/C=C\CCCCCCCC(=O)O [ALA, cis,cis,cis-9,12,15-octacedatriencoic acid]	[ALA] necessary to obtain 50% PP2A inhibition (PME-1; [LA]=0 μg/mL): > 8 µg/mL; [ALA] necessary to obtain 50% PP2A inhibition (PME-1; [LA]=0.5 μg/mL): > 4 µg/mL
